Consider 21 compounds from patent US12358904B2, “Inhibitors of TYK2” (Atomwise Inc., priority 2023, dated 2025).

pIC50: −log10 of the molar value. Bounds are passed on as bounds.

One assay addresses T1, TYK2-JH2 (Homo sapiens, UniProt P29597).
T1 construct: TYK JH2 enzyme mix (ChemPartnec CP20210818A-BV); purchased ChemPartner CP20210818A-BV
Briefly: TYK2-JH2 HTRF binding assay (ligand efficiency). The following applies: calculated from IC50 of the TYK-JH2 binding assay (Equation 1). The protocol: The following example describes the TYK2-JH2 HTRF binding assay used to determine the ligand efficiency of the TYK2 inhibitors.
To calculate ligand efficiency, Equation 1 is applied:
[formula] in which IC50 comes from the binding assay used to determine compound potency.
TYK JH2 enzyme mix (ChemPartnec CP20210818A-BV), tracer (ChemPartnec CP-0029472-051) and mAb Anti-6HIS Tb cryptate Gold (Cisbio: Cat No. 61H12TLA) mix were prepared in assay buffer (10 mM MgCl2, 20 mM HEPES pH 7.5, 0.01% Triton X-100, 1 mM DTT). Compounds diluted in DMSO (Final Concentrations 0.1 to 0.000005 [μM]) and enzyme mix (0.5 nM Final Concentration) were added to 384 well plates, briefly centrifuged and incubated at room temperature for 10 minutes. After incubation, tracer mix (Tracer-35 nM final concentration); (Mab Anti-6HIS Tb cryptate Gold-0.5× final)) was added, briefly centrifuged then incubate at room temperature 60 minutes. After incubation, plates were read by Envision TR-FRET (Ex340/Em495/520) protocol (PerkinElmer-Envision 2104 multilabel plate reader).

For another assay, the system named is IL-12/pSTAT4. Kind of assay: IL-12 induced pSTAT4 assay in NK-92 cells. It is filed as cell-based. As to conditions: Homo sapiens, NK92, IL-12 stimulation, read-out: Cellular potency (IL-12/pSTAT4). The protocol: The following example describes the IL-12 induced pSTAT4 assay used to determine the cellular potency (IL-12/pSTAT4) of the TYK2 inhibitors.
NK-92 cells (human natural killer lymphoma cell line) were cultured in MEM α, nucleosides (Life Technologies, 22571020) 12.5% heat inactivated FBS (Dominique Dutscher, S1810), 12.5% heat inactivated Horse serum (Life Technologies, 26050088) and 1% Penicillin-Streptomycin (Life Technologies, 15140122), 5 ng/mL human IL-2 (R&D systems, 202-II/CF), 0.2 mM inositol (Sigma, PHR1351 lot LRAC4118), 0.1 mM β-mercaptoethanol (Life Technologies, 31350010), and 0.02 mM folic acid (Sigma, F8758).
NK-92 cells were starved overnight in starvation medium (Opti-MEM (ThermoFisher, 11058-021), 10% charcoal stripped FBS (ThermoFisher 12676-029), and 1% Penicillin (100U/ml)-Streptomycin (100 μg/ml) (ThermoFisher, ref 15140122)), then plated in a 96-well tissue culture plate (20K cells/well) prior to pre-incubation with test compounds (Final Concentration [nM] 1000 to 0.05) for 30 minutes at 37° C. Cells were stimulated with IL-12 (Final Concentration l0 ng/ml) for 30 minutes at 37° C., and terminated by addition of lysis buffer (MSD K150PAD-2). pSTAT4 (Tyr693) was detected using the Mesa Scale Discovery platform (MSD K150PAD-2), according to manufacturer's instruction. Briefly, cell lysates were added to pre-blocked plates and incubated for 1 hour at room temperature. Plates were washed and incubated with detection antibody for 1 hour at room temperature. Plates were washed and Read Buffer was added prior to measurement on the MSD (1300 MSD Quickplex SQ 120).

T1 sequence (P29597 589-875 limits assumed): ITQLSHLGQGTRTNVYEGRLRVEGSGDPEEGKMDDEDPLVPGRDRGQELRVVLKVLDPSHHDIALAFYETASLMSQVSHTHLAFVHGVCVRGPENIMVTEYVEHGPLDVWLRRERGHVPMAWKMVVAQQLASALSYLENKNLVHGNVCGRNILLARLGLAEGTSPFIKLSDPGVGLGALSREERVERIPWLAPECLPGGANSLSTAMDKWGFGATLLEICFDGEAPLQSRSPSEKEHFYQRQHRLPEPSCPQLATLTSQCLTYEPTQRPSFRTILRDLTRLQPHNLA

Regarding `CS(=O)(=O)c1ccccc1Nc1cc(Nc2ccc(C3(NC4COC4)CC3)cn2)ncn1` [Compound 41, N^4-(2-(methylsulfonyl)phenyl)-N^6-(5-(1-(oxetan-3-ylamino)cyclopropyl)130yridine-2-yl)pyrimidine-4,6-diamine], the “Ligand Efficiency” value at TYK2-JH2 is “†† (††: 0.37-0.39)”. Further, the pIC50 in the assay on IL-12/pSTAT4 was 6.00 to 7.00.
Taken in the same sequence, the figures for `CS(=O)(=O)c1cccnc1Nc1cc(Nc2ccc(NC3CC(F)(F)C3)cn2)ncn1` [Compound 37, N^4-(5-(3,3-difluorocyclobutylamino)124yridine-2-yl)-N^6-(3-(methylsulfonyl)124yridine-2-yl)pyrimidine-4,6-diamine] were “††† (†††: >0.39)” and over 7.00.
On to `C[C@@H](c1ccc(Nc2cc(Nc3ncccc3S(C)(=O)=O)ncn2)nc1)N1CCCC1` [Compound 15, I-N^4-(3-(methylsulfonyl)97yridine-2-yl)-N^6-(5-(1-(97yridine9797e-1-yl)ethyl)97yridine-2-yl)pyrimidine-4,6-diamine], for which the “Ligand Efficiency” value on TYK2-JH2 is recorded as “††† (†††: >0.39)”. The pIC50 with IL-12/pSTAT4 is over 7.00.
Taken in the same sequence, the figures for `C[C@H](c1ccc(Nc2cc(Nc3ncccc3S(C)(=O)=O)ncn2)nc1)N1CCC2(CCOCC2)C1` [Compound 30, I-N^4-(5-(1-(8-oxa-2-azaspiro[4.5]decan-2-yl)ethyl)112yridine-2-yl)-N^6-(3-(methylsulfonyl)112yridine-2-yl)pyrimidine-4,6-diamine] were “†† (††: 0.37-0.39)” and over 7.00.
In the case of `COc1ccc(Nc2cc(NC(=O)C3CC3)ncn2)c(C(N)=O)c1` [Compound 70, 2-((6-(cyclopropanecarboxamido)pyrimidin-4-yl)amino)-5-methoxy benzamide], at TYK2-JH2, the “Ligand Efficiency” value was “††† (†††: >0.39)”. Further, the pIC50 in the assay on IL-12/pSTAT4 is under 6.00.
For the compound `C[C@@H](c1ccc(Nc2cc(Nc3ncc(Cl)cc3S(C)(=O)=O)ncn2)nc1)N1CC2(COC2)C1` [Compound 14, (S)—N^4-(5-(1-(2-oxa-6-azaspiro[3.3]heptan-6-yl)ethyl) 95yridine-2-yl)-N^6-(5-chloro-3-(methylsulfonyl)95yridine-2-yl)pyrimidine-4,6-diamine], the “Ligand Efficiency” value at TYK2-JH2 is recorded as “††† (†††: >0.39)”. Moreover, the pIC50 in the assay with IL-12/pSTAT4 is over 7.00.
Taken in the same sequence, the figures for `Cc1ccnc(Nc2cc(Nc3ccccc3P(C)(C)=O)ncn2)c1` [Compound 63, N^4-(2-(dimethylphosphoryl)phenyl)-N^6-(4-methylpyridin-2-yl) pyrimidine-4,6-diamine] were “††† (†††: >0.39)” and 6.00 to 7.00.
As to `Cc1nccc(Nc2cc(Nc3ccccc3C(N)=O)ncn2)n1` [Compound 48, 2-((6-((2-methylpyrimidin-4-yl)amino)pyrimidin-4-yl)amino) benzamide], on TYK2-JH2, the “Ligand Efficiency” value is reported as “††† (†††: >0.39)”. For the same compound, the pIC50 in the assay on IL-12/pSTAT4 is 6.00 to 7.00.
Taken in the same sequence, the figures for `Cc1cccc(Nc2cc(Nc3ncccc3C(N)=O)ncn2)n1` [Compound 52, 2-((6-((6-methylpyridin-2-yl)amino)pyrimidin-4-yl)amino) nicotinamide] were “††† (†††: >0.39)” and 6.00 to 7.00.
`CS(=O)(=O)c1ccccc1Nc1cc(Nc2ccc(N3CCOCC3)cn2)ncn1` [Compound 42, N^4-(2-(methylsulfonyl)phenyl)-N^6-(5-morpholinopyridin-2-yl) pyrimidine-4,6-diamine]: the “Ligand Efficiency” value at TYK2-JH2 was “††† (†††: >0.39)”. In addition, the pIC50 in the assay on IL-12/pSTAT4 was 6.00 to 7.00.
Taken in the same sequence, the figures for `C[C@H](NC1COC1)c1ccc(Nc2cc(Nc3ccccc3S(C)(=O)=O)ncn2)nc1` [Compound 40, I-N^4-(2-(methylsulfonyl)phenyl)-N^6-(5-(1-(oxetan-3-ylamino)ethyl)128yridine-2-yl)pyrimidine-4,6-diamine] were “††† (†††: >0.39)” and 6.00 to 7.00.
Taken in the same sequence, the figures for `Cc1ccnc(Nc2cc(Nc3ccccc3C(N)=O)ncn2)n1` [Compound 58, 2-(6-(4-methylpyrimidin-2-ylamino)pyrimidin-4-ylamino)benzamide] were “††† (†††: >0.39)” and under 6.00.
In the case of `CC1(Nc2cnc(Nc3cc(Nc4ncccc4S(C)(=O)=O)ncn3)cn2)COC1` [Compound 74, N^4-(5-(3-methyloxetan-3-ylamino)pyrazin-2-yl)-N^6-(3-(methylsulfonyl)167yridine-2-yl)pyrimidine-4,6-diamine], the “Ligand Efficiency” value on TYK2-JH2 is on record as “††† (†††: >0.39)”. The pIC50 with IL-12/pSTAT4 is 6.00 to 7.00.
Take `CS(=O)(=O)c1ccccc1Nc1cc(Nc2ccc(NC3COC3)cn2)ncn1` [Compound 80, N^4-(2-(methylsulfonyl)phenyl)-N^6-(5-(oxetan-3-ylamino)177yridine-2-yl) pyrimidine-4,6-diamine]: the “Ligand Efficiency” value on TYK2-JH2 was “† (†: <0.37)”. For the same compound, in the assay on IL-12/pSTAT4, the pIC50 is under 6.00.
The like results for `CC1(CNc2ccc(Nc3cc(Nc4ncccc4S(C)(=O)=O)ncn3)nc2)COC1` [Compound 36, N^4-(5-(((3-methyloxetan-3-yl)methyl)amino)123yridine-2-yl)-N^6-(3-(methylsulfonyl)123yridine-2-yl)pyrimidine-4,6-diamine] were, in that order, “††† (†††: >0.39)” and over 7.00.
Taken in the same sequence, the figures for `C[C@H]1CN(C)CCN1c1ccc(Nc2cc(Nc3ncccc3S(C)(=O)=O)ncn2)nc1` [Compound 20, (S)—N^4-(5-(2,4-dimethylpiperazin-1-yl)101yridine-2-yl)-N^6-(3-(methylsulfonyl)101yridine-2-yl)pyrimidine-4,6-diamine] were “††† (†††: >0.39)” and over 7.00.
The like results for `Cc1cccc(Nc2cc(Nc3ncccc3CS(C)(=O)=O)ncn2)n1` [Compound 71, N^4-(6-methylpyridin-2-yl)-N^6-(3-((methylsulfonyl)methyl) 162yridine-2-yl)pyrimidine-4,6-diamine] were, in that order, “††† (†††: >0.39)” and under 6.00.
With `CS(=O)(=O)c1cccnc1Nc1cc(Nc2ccc(N3CCN(C4CC4)CC3)cn2)ncn1` [Compound 7, N^4-(5-(4-cyclopropylpipeiazin-1-yl) 83yridine-2-yl)-N^6-(3-(methylsulfonyl)83yridine-2-yl)pyrimidine-4,6-diamine], the “Ligand Efficiency” value on TYK2-JH2 is “††† (†††: >0.39)”. Also, in the assay on IL-12/pSTAT4, the pIC50 was over 7.00.
Taken in the same sequence, the figures for `CS(=O)(=O)c1cccnc1Nc1cc(Nc2ncccc2F)ncn1` [Compound 64, N^4-(3-fluoropyridin-2-yl)-N^6-(3-(methylsulfonyl)154yridine-2-yl) pyrimidine-4,6-diamine] were “††† (†††: >0.39)” and under 6.00.
The like results for `Cc1cccc(Nc2cc(Nc3ccncc3S(C)(=O)=O)ncn2)n1` [Compound 60, N^4-(6-methylpyridin-2-yl)-N^6-(3-(methylsulfonyl)151yridine-4-yl) pyrimidine-4,6-diamine] were, in that order, “††† (†††: >0.39)” and under 6.00.
Taken in the same sequence, the figures for `C[C@@H](c1ccc(Nc2cc(Nc3ncccc3S(C)(=O)=O)ncn2)nc1)N1C[C@H]2COC[C@H]2C1` [Compound 25, N^4-(3-(methylsulfonyl)105yridine-2-yl)-N^6-(5-(1-((3aR,6aS)-tetrahydro-1H-furo[3,4-c]pyrrol-5 (3H)-yl)ethyl)105yridine-2-yl)pyrimidine-4,6-diamine] were “††† (†††: >0.39)” and over 7.00.
